Measured values from PMC9234961 (Journal of Medicinal Chemistry, 2022).

How the values were obtained:
ADRB2 = target: T1, ADRB2 (Homo sapiens, UniProt P07550); assay: SAFETYScan GPCR cAMP, Antagonist; type: cell-based
T1 construct: expressed in transfected cells
Excerpt: (§1) Supplement jm1c02175_si_002.xlsx, sheet "SAFETYScan" | column: RC50 (uM); Max Response

CHRM2 = target: T2, CHRM2 (Homo sapiens, UniProt P08172); assay: SAFETYScan GPCR cAMP, Antagonist; type: cell-based
T2 construct: expressed in transfected cells
T2 sequence (P08172 1-466): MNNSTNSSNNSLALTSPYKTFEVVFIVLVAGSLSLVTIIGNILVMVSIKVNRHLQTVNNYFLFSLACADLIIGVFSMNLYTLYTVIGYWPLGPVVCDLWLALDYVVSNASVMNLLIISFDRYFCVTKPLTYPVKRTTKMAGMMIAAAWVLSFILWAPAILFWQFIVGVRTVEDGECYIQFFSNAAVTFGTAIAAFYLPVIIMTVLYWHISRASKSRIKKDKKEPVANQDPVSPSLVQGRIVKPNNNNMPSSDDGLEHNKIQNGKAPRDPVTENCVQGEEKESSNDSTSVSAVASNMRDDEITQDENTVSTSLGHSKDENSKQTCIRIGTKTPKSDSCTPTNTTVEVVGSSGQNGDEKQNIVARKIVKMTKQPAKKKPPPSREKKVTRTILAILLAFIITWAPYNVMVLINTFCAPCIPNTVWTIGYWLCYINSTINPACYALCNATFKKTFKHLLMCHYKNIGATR
Excerpt: as §1

CNR1 = target: T3, CNR1 (Homo sapiens, UniProt P21554); assay: SAFETYScan GPCR cAMP, Antagonist; type: cell-based
T3 construct: expressed in transfected cells
T3 sequence (P21554 whole entry): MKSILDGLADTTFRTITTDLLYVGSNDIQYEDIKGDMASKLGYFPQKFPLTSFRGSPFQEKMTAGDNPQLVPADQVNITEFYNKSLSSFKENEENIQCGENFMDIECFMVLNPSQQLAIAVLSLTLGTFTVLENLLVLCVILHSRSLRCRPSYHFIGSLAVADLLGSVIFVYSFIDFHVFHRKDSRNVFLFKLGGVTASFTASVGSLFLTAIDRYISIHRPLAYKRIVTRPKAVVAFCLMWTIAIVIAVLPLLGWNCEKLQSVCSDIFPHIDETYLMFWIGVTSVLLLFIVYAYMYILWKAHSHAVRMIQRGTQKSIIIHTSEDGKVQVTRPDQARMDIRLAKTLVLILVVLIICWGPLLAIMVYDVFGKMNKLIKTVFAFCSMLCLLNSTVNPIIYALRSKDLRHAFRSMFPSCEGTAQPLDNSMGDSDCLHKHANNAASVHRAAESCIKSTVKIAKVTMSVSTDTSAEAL
Excerpt: as §1

CNR2 = target: T4, CNR2 (Homo sapiens, UniProt P34972); assay: SAFETYScan GPCR cAMP, Antagonist; type: cell-based
T4 construct: expressed in transfected cells
T4 sequence (P34972 whole entry): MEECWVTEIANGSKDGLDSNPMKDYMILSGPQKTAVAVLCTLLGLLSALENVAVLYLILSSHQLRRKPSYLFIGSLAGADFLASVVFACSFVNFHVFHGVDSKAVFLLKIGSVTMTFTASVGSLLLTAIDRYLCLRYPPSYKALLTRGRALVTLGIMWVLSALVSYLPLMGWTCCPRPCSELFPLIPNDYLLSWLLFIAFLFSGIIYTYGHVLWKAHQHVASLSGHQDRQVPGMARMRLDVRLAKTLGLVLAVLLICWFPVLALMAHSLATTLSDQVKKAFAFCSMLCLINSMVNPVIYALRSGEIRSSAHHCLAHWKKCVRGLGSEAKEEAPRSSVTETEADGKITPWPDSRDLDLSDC
Excerpt: as §1

DRD1 = target: T5, DRD1 (Homo sapiens, UniProt P21728); assay: SAFETYScan GPCR cAMP, Antagonist; type: cell-based
T5 construct: expressed in transfected cells
T5 sequence (P21728 whole entry): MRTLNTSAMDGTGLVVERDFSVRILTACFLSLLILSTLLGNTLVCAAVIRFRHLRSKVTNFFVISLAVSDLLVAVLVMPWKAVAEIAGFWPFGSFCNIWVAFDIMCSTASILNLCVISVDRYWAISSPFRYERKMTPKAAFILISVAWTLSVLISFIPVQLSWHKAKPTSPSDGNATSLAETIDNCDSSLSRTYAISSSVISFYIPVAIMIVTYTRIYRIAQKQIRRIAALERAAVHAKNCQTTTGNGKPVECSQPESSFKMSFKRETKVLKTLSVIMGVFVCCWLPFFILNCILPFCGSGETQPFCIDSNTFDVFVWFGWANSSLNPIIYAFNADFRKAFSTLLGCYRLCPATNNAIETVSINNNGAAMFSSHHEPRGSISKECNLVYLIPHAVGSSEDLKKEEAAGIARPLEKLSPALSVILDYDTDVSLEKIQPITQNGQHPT
Excerpt: as §1

DRD2S = target: T6, DRD2S (Homo sapiens, UniProt P14416); assay: SAFETYScan GPCR cAMP, Antagonist; type: cell-based
T6 construct: expressed in transfected cells
T6 sequence (P14416 1-414 isoform P14416-2): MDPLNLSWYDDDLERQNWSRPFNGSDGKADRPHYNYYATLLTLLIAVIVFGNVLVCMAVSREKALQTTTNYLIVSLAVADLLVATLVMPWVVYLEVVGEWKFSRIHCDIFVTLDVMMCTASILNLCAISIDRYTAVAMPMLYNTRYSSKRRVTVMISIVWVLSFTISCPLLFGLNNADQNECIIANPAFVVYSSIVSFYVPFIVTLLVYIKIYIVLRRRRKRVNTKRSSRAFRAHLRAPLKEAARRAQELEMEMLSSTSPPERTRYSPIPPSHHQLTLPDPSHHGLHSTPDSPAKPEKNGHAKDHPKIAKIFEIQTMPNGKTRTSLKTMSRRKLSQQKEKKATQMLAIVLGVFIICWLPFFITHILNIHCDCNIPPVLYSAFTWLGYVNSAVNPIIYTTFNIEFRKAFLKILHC
Excerpt: as §1

HRH2 = target: T7, HRH2 (Homo sapiens, UniProt P25021); assay: SAFETYScan GPCR cAMP, Antagonist; type: cell-based
T7 construct: expressed in transfected cells
T7 sequence (P25021 whole entry): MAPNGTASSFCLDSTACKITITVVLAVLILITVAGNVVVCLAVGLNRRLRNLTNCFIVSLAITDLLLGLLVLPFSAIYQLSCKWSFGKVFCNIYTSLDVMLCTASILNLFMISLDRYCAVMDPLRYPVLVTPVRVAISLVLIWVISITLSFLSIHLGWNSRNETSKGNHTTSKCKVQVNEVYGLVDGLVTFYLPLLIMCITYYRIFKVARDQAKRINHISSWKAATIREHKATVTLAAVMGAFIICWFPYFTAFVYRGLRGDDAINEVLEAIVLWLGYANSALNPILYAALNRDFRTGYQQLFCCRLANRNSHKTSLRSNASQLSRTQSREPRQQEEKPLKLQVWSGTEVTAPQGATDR
Excerpt: as §1

HTR1A = target: T8, HTR1A (Homo sapiens, UniProt P08908); assay: SAFETYScan GPCR cAMP, Antagonist; type: cell-based
T8 construct: expressed in transfected cells
T8 sequence (P08908 1-422): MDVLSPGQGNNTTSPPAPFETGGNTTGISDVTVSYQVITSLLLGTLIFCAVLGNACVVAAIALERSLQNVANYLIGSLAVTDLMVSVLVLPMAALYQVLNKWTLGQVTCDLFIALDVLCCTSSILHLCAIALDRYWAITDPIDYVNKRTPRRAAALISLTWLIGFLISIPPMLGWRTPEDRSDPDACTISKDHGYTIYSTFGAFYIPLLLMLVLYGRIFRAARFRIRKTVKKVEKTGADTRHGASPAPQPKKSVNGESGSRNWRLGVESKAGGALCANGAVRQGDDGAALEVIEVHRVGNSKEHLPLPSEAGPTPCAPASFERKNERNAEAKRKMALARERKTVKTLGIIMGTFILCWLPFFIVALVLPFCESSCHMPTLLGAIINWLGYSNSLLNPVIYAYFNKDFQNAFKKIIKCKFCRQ
Excerpt: as §1

HTR1B = target: T9, HTR1B (Homo sapiens, UniProt P28222); assay: SAFETYScan GPCR cAMP, Antagonist; type: cell-based
T9 construct: expressed in transfected cells
T9 sequence (P28222 whole entry): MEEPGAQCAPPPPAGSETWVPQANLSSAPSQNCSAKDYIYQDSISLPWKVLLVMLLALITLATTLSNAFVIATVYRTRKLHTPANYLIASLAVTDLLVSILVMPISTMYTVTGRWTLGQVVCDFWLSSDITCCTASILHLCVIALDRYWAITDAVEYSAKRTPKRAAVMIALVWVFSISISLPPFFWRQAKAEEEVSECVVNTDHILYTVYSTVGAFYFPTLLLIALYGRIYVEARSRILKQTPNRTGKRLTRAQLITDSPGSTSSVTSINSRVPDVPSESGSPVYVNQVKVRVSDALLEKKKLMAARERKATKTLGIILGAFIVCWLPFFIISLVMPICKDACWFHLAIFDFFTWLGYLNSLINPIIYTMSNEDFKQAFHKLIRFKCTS
Excerpt: as §1

OPRD1 = OPRD1 (Homo sapiens, UniProt P41143); assay: SAFETYScan GPCR cAMP, Antagonist; type: cell-based
Sequence of OPRD1 (P41143 whole entry, species assumed): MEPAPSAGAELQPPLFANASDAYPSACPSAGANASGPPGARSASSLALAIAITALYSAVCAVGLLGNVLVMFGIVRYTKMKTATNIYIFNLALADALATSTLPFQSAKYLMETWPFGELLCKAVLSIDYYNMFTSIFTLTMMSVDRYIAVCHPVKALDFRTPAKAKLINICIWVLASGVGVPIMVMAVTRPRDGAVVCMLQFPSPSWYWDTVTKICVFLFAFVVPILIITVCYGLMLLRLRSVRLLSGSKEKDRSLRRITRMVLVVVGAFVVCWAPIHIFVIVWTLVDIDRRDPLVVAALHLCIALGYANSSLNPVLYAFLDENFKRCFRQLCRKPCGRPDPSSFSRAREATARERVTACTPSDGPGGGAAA
Excerpt: as §1

OPRK1 = OPRK1 (Homo sapiens, UniProt P41145); assay: SAFETYScan GPCR cAMP, Antagonist; type: cell-based
Sequence of OPRK1 (P41145 whole entry, species assumed): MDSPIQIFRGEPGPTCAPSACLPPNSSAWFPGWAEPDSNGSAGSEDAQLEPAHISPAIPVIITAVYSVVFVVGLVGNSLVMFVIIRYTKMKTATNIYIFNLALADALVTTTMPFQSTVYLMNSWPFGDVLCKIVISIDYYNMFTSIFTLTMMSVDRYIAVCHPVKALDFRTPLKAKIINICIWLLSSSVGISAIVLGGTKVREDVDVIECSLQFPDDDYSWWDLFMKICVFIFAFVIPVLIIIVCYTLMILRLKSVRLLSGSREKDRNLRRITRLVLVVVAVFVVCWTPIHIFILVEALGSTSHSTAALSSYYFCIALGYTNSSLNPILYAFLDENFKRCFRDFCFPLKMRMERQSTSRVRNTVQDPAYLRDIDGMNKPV
Excerpt: as §1

OPRM1 = OPRM1 (Homo sapiens, UniProt P35372); assay: SAFETYScan GPCR cAMP, Antagonist; type: cell-based
Sequence of OPRM1 (P35372 whole entry, species assumed): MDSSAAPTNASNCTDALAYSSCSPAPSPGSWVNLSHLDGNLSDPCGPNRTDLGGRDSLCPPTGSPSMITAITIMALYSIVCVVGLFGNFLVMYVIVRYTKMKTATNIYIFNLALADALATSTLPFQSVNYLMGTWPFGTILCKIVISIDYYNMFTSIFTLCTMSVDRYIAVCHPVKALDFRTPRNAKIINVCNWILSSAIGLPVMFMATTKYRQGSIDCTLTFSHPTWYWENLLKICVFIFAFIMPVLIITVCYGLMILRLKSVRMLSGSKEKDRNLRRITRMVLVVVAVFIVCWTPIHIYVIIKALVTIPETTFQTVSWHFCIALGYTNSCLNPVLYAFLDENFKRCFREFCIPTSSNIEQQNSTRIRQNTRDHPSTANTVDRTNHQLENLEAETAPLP
Excerpt: as §1

GABAA = GABAA (Homo sapiens, UniProt P14867+P18507+P47870); assay: SAFETYScan Ion Channel, Opener; type: cell-based; settings: read-out: Max Response
Excerpt: as §1

HTR3A = target: T10, HTR3A (Homo sapiens, UniProt P46098); assay: SAFETYScan Ion Channel, Opener; type: cell-based
T10 sequence (P46098 24-478): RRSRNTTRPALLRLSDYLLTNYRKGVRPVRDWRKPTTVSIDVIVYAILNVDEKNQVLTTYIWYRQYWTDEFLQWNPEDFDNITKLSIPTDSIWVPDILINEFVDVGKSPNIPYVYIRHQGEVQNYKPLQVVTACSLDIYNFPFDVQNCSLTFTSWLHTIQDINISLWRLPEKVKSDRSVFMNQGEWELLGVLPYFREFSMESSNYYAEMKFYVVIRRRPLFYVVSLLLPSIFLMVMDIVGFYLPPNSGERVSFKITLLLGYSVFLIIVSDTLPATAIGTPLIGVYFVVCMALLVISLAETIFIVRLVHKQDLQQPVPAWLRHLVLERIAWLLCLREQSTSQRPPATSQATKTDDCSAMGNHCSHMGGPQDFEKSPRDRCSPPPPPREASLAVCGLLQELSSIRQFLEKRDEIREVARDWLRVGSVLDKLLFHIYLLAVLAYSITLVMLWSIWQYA
Excerpt: as §1

NMDAR (1A/2B) = NMDAR (1A/2B) (Homo sapiens, UniProt Q05586+Q13224); assay: SAFETYScan Ion Channel, Opener; type: cell-based
Excerpt: as §1

nAChR(a4/b2) = nAChR(a4/b2) (Homo sapiens, UniProt P17787+P43681); assay: SAFETYScan Ion Channel, Opener; type: cell-based
Excerpt: as §1

SU-DHL-4 = assay: Cell proliferation assay (14 days), SU-DHL-4
Method: Cells were seeded in 96-well culture plates at a density of 2500 cells/well in RPMI-1640 medium (Sigma-
Aldrich) supplemented with 10% FBS (Gibco). Compounds were initially dispensed into 96-well U-bottom
plates using an Echo 550 acoustic dispenser (Labcyte Inc.), then diluted in RPMI-1640 medium and
transferred onto the cells. Cells were treated with 8 compound concentrations in duplicate, ranging from
with compound for 14 days, with medium changes at days 3, 7 and 10 carried out as follows: fresh 96-well
cell culture plates were prepared containing 100 µl medium plus compound at the assay concentrations
(white plates were used on day 10 to optimise luminescence measurement). Assay plates containing cells
were vortexed to mix and cell density in one control well was counted using a Coulter Z2 cell counter
(Beckman Coulter). The volume of medium containing 2500 cells in the control well was calculated and this volume of cells was transferred from every well of the assay plates to the corresponding well of the fresh plates containing compound. After 14 days, CellTiter Glo reagent (Promega) was added to the medium in each well of the assay plate at a ratio of 1:2, mixed on a plate shaker, then incubated at room temperature for 10 minutes. Luminescence was measured using an Envision plate reader (Perkin Elmer) and the relative luminescence at each compound concentration, compared to DMSO alone, was calculated. GI50 were determined using a 4-parameter curve fit in Dotmatics (Bishops Stortford, UK).

T1 sequence (P07550 whole entry): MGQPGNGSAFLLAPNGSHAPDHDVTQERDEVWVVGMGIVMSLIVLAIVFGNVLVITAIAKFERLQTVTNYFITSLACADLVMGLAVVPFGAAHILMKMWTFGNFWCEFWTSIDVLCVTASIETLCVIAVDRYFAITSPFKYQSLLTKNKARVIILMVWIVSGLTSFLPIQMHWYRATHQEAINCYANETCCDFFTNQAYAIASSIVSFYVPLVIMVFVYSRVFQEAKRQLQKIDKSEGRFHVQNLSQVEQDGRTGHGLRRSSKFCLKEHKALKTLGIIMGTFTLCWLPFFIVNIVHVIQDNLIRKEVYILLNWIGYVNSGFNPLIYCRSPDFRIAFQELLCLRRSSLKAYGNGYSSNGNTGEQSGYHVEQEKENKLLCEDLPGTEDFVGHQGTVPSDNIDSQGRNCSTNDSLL

C[C@H]1C[C@@H](O)CN(c2ncc(Cl)c(Nc3ccc4c(c3)c3c(c(=O)n4C)OCC(F)(F)[C@H](C4CC4)N3)n2)C1 [12a CCT373566, (S)-10-((5-Chloro-2-((3R,5S)-3-hydroxy-5-methylpiperidin-1-yl)pyrimidin-4-yl)amino)-2-cyclopropyl-3,3-difluoro-7-methyl-1,2,3,4-tetrahydro-[1,4]oxazepino[2,3-c]quinolin-6(7H)-one]
Emax (ADRB2; read-out: Max Response): 62.3%
IC50 (ADRB2; read-out: RC50 (IC50)): 1.74 µM
Emax (CHRM2; read-out: Max Response): 30.1%
IC50 (CHRM2; read-out: RC50 (IC50)): > 10 µM
Emax (CNR1; read-out: Max Response): 1.95%
IC50 (CNR1; read-out: RC50 (IC50)): > 10 µM
Emax (CNR2; read-out: Max Response): 10.7%
IC50 (CNR2; read-out: RC50 (IC50)): > 10 µM
Emax (DRD1; read-out: Max Response): 51.9%
IC50 (DRD1; read-out: RC50 (IC50)): 4.89 µM
Emax (DRD2S; read-out: Max Response): 28.7%
IC50 (DRD2S; read-out: RC50 (IC50)): > 10 µM
Emax (HRH2; read-out: Max Response): 46.3%
IC50 (HRH2; read-out: RC50 (IC50)): > 10 µM
Emax (HTR1A; read-out: Max Response): 13.8%
IC50 (HTR1A; read-out: RC50 (IC50)): > 10 µM
Emax (HTR1B; read-out: Max Response): 5.08%
IC50 (HTR1B; read-out: RC50 (IC50)): > 10 µM
Emax (OPRD1; read-out: Max Response): 0%
IC50 (OPRD1; read-out: RC50 (IC50)): > 10 µM
Emax (OPRK1; read-out: Max Response): 1.28%
IC50 (OPRK1; read-out: RC50 (IC50)): > 10 µM
Emax (OPRM1; read-out: Max Response): 9.16%
IC50 (OPRM1; read-out: RC50 (IC50)): > 10 µM
Emax (GABAA): 4.81%
Emax (HTR3A; read-out: Max Response): 1.5%
EC50 (HTR3A; read-out: RC50 (EC50)): > 10 µM
Emax (NMDAR (1A/2B); read-out: Max Response): 1.31%
EC50 (NMDAR (1A/2B); read-out: RC50 (EC50)): > 10 µM
Emax (nAChR(a4/b2); read-out: Max Response): 0%
EC50 (nAChR(a4/b2); read-out: RC50 (EC50)): > 10 µM
SU-DHL-4 GI50 (SU-DHL-4; 14-day proliferation assay): Very potent growth inhibition
GI50 (SU-DHL-4; Homo sapiens, SU-DHL-4, 336 h, read-out: SU-DHL-4 GI50): 0.0125 µM
